Laboratory results published in patent US11466069B2, “Methods of treatment and novel constructs” (AUCKLAND UNISERVICES LIMITED, priority 2017, dated 2022).
Entries after “also recorded” stand apart in the source; their conditions may differ. Non-standard residues stand in square brackets, D forms with d. Residues, ends and D or L forms follow the SMILES beside them. No end group written: not given here.

Columns and labels:
ARPE-19 cells [1] = experiment: Cellular uptake of FITC labelled peptides into ARPE-19 cells in normal medium; format: cell-based, human; conditions: for concentration at which cellular uptake was detected (FITC fluorescence): normal medium, FITC labelled peptide, 1 h, 10-50 μM (Gap19 up to 100 μM)
Experimental: Cell culture and maintenance Unless otherwise mentioned, all cell culture reagents were purchased from Gibco® or Invitrogen™ (Life Technologies). ARPE-19 cells are from a human retinal pigment epithelium cell line purchased from American Type Culture Collection (ATCC), and were maintained in T25 flasks in DMEM/F12 (DMEM/F-12, GlutaMAX™ medium containing 10% heat inactivated foetal bovine serum (FBS), and 1% Antibiotic-Antimicotic (Sigma)) at 37° C. with 5% CO2.
(§1) Peptides or control channel blockers, carbenoxolone (CBX) (Sigma) or lanthanum chloride (LaCl3; Sigma) were mixed with DMEM/F12 or EGM-2™ BulletKit™ media at appropriate concentrations and applied onto cells for 1 h at 37° C., 5% CO2. For cell uptake under hypoxic conditions, peptides were delivered in hypoxic, acidic ion-shifted Ringers (HAIR) solution (13) for 1 h at 37° C., 5% CO2. For cell uptake under hyperglycaemia and inflammation conditions peptides were delivered in hyperglycaemia and inflammation solution for 24 h at 37° C., 5% CO2. The solutions were removed and cells were washed in PBS and fixed in 4% formaldehyde PBS with nuclei were counterstained with DAPI. Coverslips were mounted in anti-fade medium (Citifluor™ AF1) and cells were visualised by confocal microscopy.

ARPE-19 cells [2] = experiment: MTT cytotoxicity assay; format: cell-based, human; conditions: ARPE-19 cells, 5, 10 or 20 μM for 1 or 24 h
Experimental: ARPE-19 cells were exposed to DMEM/F12 (normal medium) or HAIR solution for 1 h. XG19 was mixed in DMEM/F12 or HAIR solution and applied to ARPE-19 cells at 0, 5, 10 or 20 μM concentrations for either 1 or 24 h at 37° C., 5% CO2. After the incubation period, the solutions in each well were removed and replaced with 0.5 mg/mL, MTT (Thermo Fisher Scientific) in PBS and incubated for 4 h at 37° C. and 5% CO2. The MTT/PBS solution was then removed and replaced with HCl-isopropanol solution (0.04 M) to dissolve formed formazan. The intensity of purple colour was quantified by measuring absorbance at 570 nm with correction of interference at 650 nm (BioTek Synergy HT).

Cx43 hemichannel [3] = biological target: T1, Cx43 hemichannel (Homo sapiens, UniProt P17302); experiment: Hemichannel mediated EthD-1 dye uptake assay; format: cell-based; parameters: endogenous in cells; conditions: ARPE-19 cells, 5 μM peptide, low calcium solution
T1 sequence (P17302 2-382 limits assumed): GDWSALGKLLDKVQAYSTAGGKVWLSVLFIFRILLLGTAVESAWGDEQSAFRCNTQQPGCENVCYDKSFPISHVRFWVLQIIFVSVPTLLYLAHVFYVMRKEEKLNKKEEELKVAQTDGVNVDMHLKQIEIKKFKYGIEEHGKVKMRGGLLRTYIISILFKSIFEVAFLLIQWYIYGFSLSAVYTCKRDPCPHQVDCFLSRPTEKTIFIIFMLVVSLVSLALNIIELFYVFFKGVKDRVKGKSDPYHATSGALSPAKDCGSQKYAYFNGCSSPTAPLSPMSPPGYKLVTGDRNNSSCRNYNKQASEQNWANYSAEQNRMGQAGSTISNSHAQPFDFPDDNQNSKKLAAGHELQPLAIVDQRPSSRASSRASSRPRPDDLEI
Experimental: Peptides were applied onto cells for uptake as previously mentioned. Peptide solutions were removed from the cells exposed to 2 μM ethidium homodimer-1 (EthD-1) in either Hanks Buffered Salt Solution (137 mM NaCl, 5.4 mM KCl, 0.25 mM Na2HPO4, 0.1 g glucose, 0.44 mM KH2PO4, 1.0 mM MgSO4, 4.2 mM NaHCO3)+EGTA (5 mM) (low calcium solution) to open hemichannels or high calcium (Ca′) solution (Hanks Buffered Salt Solution+1.3 mM CaCl2)) for […] at 37° C., 5% CO2. The solutions were removed, cells were washed in PBS and fixed in 4% formaldehyde PBS before counterstaining nuclei with DAPI. Coverslips were mounted in anti-fade medium (Citifluor™ AF1) and slides were imaged.

Cx43 hemichannel [4] = biological target: T1, Cx43 hemichannel; experiment: Hemichannel mediated ATP release assay (low calcium solution); format: cell-based; parameters: endogenous in cells; conditions: for ATP release compared to low calcium, 30 min: ARPE-19, 5 μM XG19, 100 μM Peptide5, 100 μM CBX, 30 min low calcium
Experimental: Peptides were applied onto cells for uptake studies as previously described. Peptide solutions were removed from the cells, which were then exposed to either low calcium (Ca^2+) solution or HAIR solution to open hemichannels or high calcium solution to close hemichannels for […] at 37° C., 5% CO2.

gap junctions = experiment: Lucifer Yellow dye scrape/load gap junction assay; format: cell-based, human; conditions: ARPE-19, scrape/load; XG19 5 μM
Experimental: Peptides were applied onto cells for uptake as previously mentioned. Peptide solutions were removed from the cells and the cells were exposed to 0.1% […]/PBS dye (LY). A vertical and horizontal scrape was created in the cell monolayer using a pipette tip. The cells were then incubated at room temperature for 15 min. The LY dye solution was removed, cells were washed in PBS and fixed in 4% formaldehyde PBS with nuclei counterstained with DAPI. Coverslips were mounted in anti-fade medium (Citifluor™ AF1) and slides were imaged.

hRMEC cells = experiment: Cellular uptake of FITC labelled peptides into hRMEC cells (confocal microscopy); format: cell-based, human
Experimental: Primary human retinal microvascular endothelial cells (hRMEC; Neuromics) were cultured and maintained in T25 flasks in EGM-2™ BulletKit™ media (Lonza) containing endothelial basal media (EBM-2; Lonza) and EGM-2 SingleQuots™ (Lonza), supplemented with 10% fetal bovine serum and 1% Antibiotic-Antimicotic (Sigma) at 37° C. with 5% CO2. VEGF was excluded from the EGM-2 media.
as §1

gap junction = conditions: literature (6); cited from earlier work
Cx43 hemichannel [5] = biological target: T1, Cx43 hemichannel; conditions: ethidium bromide uptake, literature (6); cited from earlier work
hypoxic ARPE-19 cells = experiment: Cellular uptake in hypoxic ARPE-19 cells (HAIR solution); format: cell-based, human; conditions: ARPE-19, FITC labelled peptide, HAIR solution 1 h
Experimental: as §1

[6] = test system: hyperglycaemic and inflamed ARPE-19 cells; experiment: Cellular uptake in hyperglycaemic and inflamed ARPE-19 cells; format: cell-based, human; conditions: ARPE-19, FITC labelled peptide, 24 h
Experimental: The inflammatory cytokines TNFα and Il-1β (PeproTech) were added to achieve a final concentration of 10 ng/ml each. Antibiotic-Antimycotic was added to the solution to achieve a 1% concentration. The solution was made fresh before application to cells.
as §1

YGRKKRRQRRRKQIEIKKFK [TAT-Gap19, fusion peptide of TAT peptide and Gap19]
concentration at which cells were saturated with peptide (ARPE-19 cells [1]; ARPE-19 cells): 20 µM | cellular uptake (FITC fluorescence), dependence on concentration (ARPE-19 cells [1]; ARPE-19 cells, 10, 20, 50 μM): dose dependant manner | overall cellular uptake compared to XG19 (ARPE-19 cells [1]; ARPE-19 cells, 10, 20, 50 μM): higher cell uptake than XG19 | overall cellular uptake compared to XG19 (ARPE-19 cells [1]; ARPE-19 cells, 10, 20, 50 μM, listed as TAT-GAP19): much greater than for XG19 at all the tested concentrations | subcellular localisation of peptide after uptake (ARPE-19 cells [1]; ARPE-19 cells, FITC vs DAPI): mainly accumulated into the nucleus | concentration at which cellular uptake was detected (FITC fluorescence) (ARPE-19 cells [1]; ARPE-19 cells): ≤ 10 µM

CC[C@H](C)[C@H](NC(=O)[C@H](CCC(=O)O)NC(=O)[C@@H](NC(=O)[C@H](CCC(N)=O)NC(=O)[C@H](CCCCN)NC(=O)CNC(=O)CNC(=O)[C@H](NC(=O)[C@H]1CCCN1C(=O)[C@@H](CCCNC(=N)N)NC(=O)[C@@H](CC(C)C)NC(=O)[C@@H](CS)NC(=O)[C@H](N)CC(C)C)C(C)C)[C@@H](C)CC)C(=O)N[C@@H](CCCCN)C(=O)N[C@@H](CCCCN)C(=O)N[C@@H](Cc1ccccc1)C(=O)N[C@@H](CCCCN)C(=O)O [XG19] (H-[dL][dC][dL][dR][dP][dV]GGKQIEIKKFK-OH)
cell viability (MTT) compared to untreated cells (ARPE-19 cells [2]): no significant difference in cell viability

FITC-XG19: FITC labelled XG19 used in the cellular uptake experiments ([dL][dC][dL][dR][dP][dV]GGKQIEIKKFK; also: FITC label, site not given here)
EthD-1 dye uptake (mean fluorescence intensity) compared to low calcium treatment (Cx43 hemichannel [3]): significant reduction of the mean fluorescence intensity; also recorded: reduced EthD-1 uptake

CC1(C)[C@@H](OC(=O)CCC(=O)O)CC[C@]2(C)[C@H]3C(=O)C=C4[C@@H]5C[C@@](C)(C(=O)O)CC[C@]5(C)CC[C@@]4(C)[C@]3(C)CC[C@@H]12 [CBX, carbenoxolone]
ATP release compared to low calcium, 30 min (Cx43 hemichannel [4]): reduced ATP release | gap junction function (Lucifer Yellow dye spread to neighbouring cells) (gap junctions): the dye was not further transported to any neighbouring cells; also recorded: inhibited gap junction communication

VDCFLSRPTEKT [PepS]
ATP release relative to CBX treated group (Cx43 hemichannel [4]; ARPE-19, low calcium solution): greater than CBX | ATP release compared to low calcium, 30 min (Cx43 hemichannel [4]): reduced ATP release

KQIEIKKFK (listed as Homo sapiens) [Gap19]
concentration at which cellular uptake was detected (FITC fluorescence) (ARPE-19 cells [1]; ARPE-19 cells): > 100 µM | cellular uptake (FITC fluorescence) at 100 μM (hRMEC cells; 100 μM, still lower than 10 μM XG19): Some uptake was observed | concentration at which cellular uptake was detected (FITC fluorescence) (hRMEC cells; FITC labelled peptide, 1 h, XG19 10, 20, 50 μM, Gap19 10, 20, 50, 100 μM): > 50 µM | gap junction function post uptake (gap junction): maintain gap junction function | concentration at which efficacy improved (Cx43 hemichannel [5]): 344 to 688 µM | concentration with no effect on Cx43 hemichannel inhibition (Cx43 hemichannel [5]): > 172 µM | cellular uptake in hypoxic solution vs normal media (hypoxic ARPE-19 cells): undetectable in either condition; also recorded: no change in uptake | cellular uptake in hyperglycaemia and inflammation solution vs normal media [6]: undetectable in either condition; also recorded: no change in uptake
